Data published in patent publication EP4810052A2, “HCRHR2 SELECTIVE POLYPEPTIDES” (Gubra A/S, priority 2023, dated 2026).
Like-named read-outs stand apart in the source and are kept apart here. Starred links: 1 amine or outer side, 2 acyl side, 3 side chain; linkers in the order of their positions; H or OH if unused. Non-standard residues stand in square brackets, D forms with d. Residues, ends and D or L forms follow the SMILES beside them. Groups on a side chain read outwards from the residue. *: point of attachment. C20 diacid = O=C(O)CCCCCCCCCCCCCCCCCCC(=O)*; Pro(cis-4-F) = O=C(O)[C@@H]1C[C@H](F)CN1; γGlu = O=C(O)[C@H](CCC(=O)[*:2])N[*:1]; NMeI = CC[C@H](C)[C@H](NC)C(=O)O; Nle = CCCC[C@H](N)C(=O)O; AEEA = NCCOCCOCC(=O)O; Aib = CC(C)(N)C(=O)O

Assays:
[1] = target: T1, hCRHR1 (Homo sapiens, UniProt P34998); assay: HTRF cAMP assay, determination of hCRHR1 potency (peptide libraries 5 conc., purified peptides 11 conc.); type: cell-based
T1 sequence (P34998 24-415): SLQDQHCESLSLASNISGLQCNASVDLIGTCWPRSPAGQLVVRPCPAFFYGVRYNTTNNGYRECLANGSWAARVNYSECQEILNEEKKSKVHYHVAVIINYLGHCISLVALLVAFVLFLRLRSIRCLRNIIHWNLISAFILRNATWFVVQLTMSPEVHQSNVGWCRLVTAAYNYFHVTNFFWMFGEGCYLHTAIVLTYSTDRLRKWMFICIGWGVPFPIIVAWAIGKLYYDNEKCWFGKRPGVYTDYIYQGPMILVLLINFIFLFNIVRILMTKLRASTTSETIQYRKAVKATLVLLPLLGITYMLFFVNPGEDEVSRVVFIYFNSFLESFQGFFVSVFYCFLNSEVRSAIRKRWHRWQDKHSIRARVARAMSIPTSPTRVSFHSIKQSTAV
Summary of the method: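 Cellular cAMP was read by time-resolved FRET between d2-labelled cAMP and cryptate anti-cAMP antibody. The cells were freshly thawed suspension CHO-K1 cells stably expressing human CRHR1.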

[2] = target: T2, hCRHR2 (Homo sapiens, UniProt Q13324); assay: HTRF cAMP assay, determination of hCRHR2 potency (peptide libraries 5 conc., purified peptides 11 conc.); type: cell-based
T2 sequence (Q13324 1-411): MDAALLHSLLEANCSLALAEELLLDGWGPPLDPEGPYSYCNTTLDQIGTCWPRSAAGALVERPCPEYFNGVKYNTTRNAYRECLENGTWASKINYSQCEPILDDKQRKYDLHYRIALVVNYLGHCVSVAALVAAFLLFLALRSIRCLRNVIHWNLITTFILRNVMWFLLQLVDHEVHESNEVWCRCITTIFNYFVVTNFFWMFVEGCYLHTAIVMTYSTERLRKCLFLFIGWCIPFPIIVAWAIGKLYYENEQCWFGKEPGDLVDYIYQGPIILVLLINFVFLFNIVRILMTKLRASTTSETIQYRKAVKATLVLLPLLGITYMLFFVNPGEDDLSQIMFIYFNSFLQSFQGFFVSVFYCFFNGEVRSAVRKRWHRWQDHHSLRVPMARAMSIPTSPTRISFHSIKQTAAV
Summary of the method: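 Frozen stocks of hCRHR2-expressing CHO-K1 cells, thawed just before testing, received peptide agonists in suspension; cAMP quantified by competitive HTRF immunoassay, with curves fitted by nonlinear regression (variable slope) for EC50.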

[3] = library peptides, matched molecular pairs L vs Nle in position X^38, read-out: Potency hCRHR1 pEC50 (converted)
[4] = library peptides, matched molecular pairs L vs Nle in position X^38, read-out: Potency hCRHR2 pEC50 (converted)

| Compound | EC50 [1, 3] | EC50 [2, 4] | EC50 ([1]; Table 4, library peptides having X^38 = Nle, read-out: hCRHR1 pEC50 (converted)) | EC50 ([2]; Table 4, library peptides having X^38 = Nle, read-out: hCRHR2 pEC50 (converted)) |
| --- | --- | --- | --- | --- |
| CCCC[C@H](NC(=O)[C@@H](NC(=O)[C@H](CCC(=O)O)NC(=O)[C@H](C)NC(=O)[C@H](CC(N)=O)NC(=O)[C@@H](NC(=O)[C@H](CCCCNC(=O)COCCOCCNC(=O)COCCOCCNC(=O)CC[C@H](NC(=O)CC[C@H](NC(=O)CCCCCCCCCCCCCCCCCCC(=O)O)C(=O)O)C(=O)O)NC(=O)[C@H](C)NC(=O)[C@H](CCC(N)=O)NC(=O)[C@H](CCC(=O)O)NC(=O)[C@H](CCCNC(=N)N)NC(=O)[C@H](C)NC(=O)[C@H](C)NC(=O)[C@H](CCC(N)=O)NC(=O)[C@H](C)NC(=O)[C@H](CCCNC(=N)N)NC(=O)[C@H](C)NC(=O)[C@H](CCC(N)=O)NC(=O)[C@H](CCC(=O)O)NC(=O)[C@H](CC(C)C)NC(=O)[C@H](CC(C)C)NC(=O)[C@@H](NC(=O)[C@H](CCC(N)=O)NC(=O)[C@H](CC(C)C)NC(=O)[C@H](CC(C)C)NC(=O)CNC(=O)[C@@H](NC(=O)[C@@H]1CCCN1C(=O)[C@@H](NC(=O)[C@H](CC(=O)O)NC(=O)[C@H](CC(C)C)NC(=O)[C@H](CO)NC(=O)[C@H](CC(C)C)NC(=O)[C@@H](NC(=O)[C@@H](N)[C@@H](C)CC)C(C)C)C(C)C)[C@@H](C)CC)[C@@H](C)CC)[C@@H](C)O)[C@@H](C)CC)C(=O)N[C@@H](C)C(=O)N[C@@H](CCC(=O)O)C(=O)N[C@H](C(N)=O)C(C)C [compound 63] (H-IVLSLDVPIGLLQILLEQARAQAAREQAK([AEEA-AEEA-γGlu-γGlu-C20 diacid])TNAEI[Nle]AEV-NH2) | 501 nM | 0.251 nM |  |  |
| CCCC[C@H](NC(=O)[C@@H](NC(=O)[C@H](CCC(=O)O)NC(=O)C(C)(C)NC(=O)[C@H](CC(N)=O)NC(=O)[C@@H](NC(=O)[C@H](CCCCNC(=O)COCCOCCNC(=O)COCCOCCNC(=O)CC[C@H](NC(=O)CC[C@H](NC(=O)CCCCCCCCCCCCCCCCCCC(=O)O)C(=O)O)C(=O)O)NC(=O)[C@H](C)NC(=O)[C@H](CCC(N)=O)NC(=O)[C@H](CCC(=O)O)NC(=O)[C@H](CCCNC(=N)N)NC(=O)[C@H](C)NC(=O)[C@H](C)NC(=O)[C@H](CCCNC(=N)N)NC(=O)[C@H](C)NC(=O)[C@H](CCCNC(=N)N)NC(=O)[C@H](C)NC(=O)[C@H](CCC(N)=O)NC(=O)[C@@H](NC(=O)[C@H](CC(C)C)NC(=O)[C@H](CC(C)C)NC(=O)[C@@H](NC(=O)[C@H](CCC(N)=O)NC(=O)[C@H](CC(C)C)NC(=O)[C@H](CC(C)C)NC(=O)CNC(=O)[C@@H](NC(=O)[C@@H]1CCCN1C(=O)[C@@H](NC(=O)[C@H](CC(=O)O)NC(=O)[C@H](CC(C)C)NC(=O)[C@H](CO)NC(=O)[C@H](CC(C)C)NC(=O)[C@@H](NC(=O)[C@@H](NC)[C@@H](C)CC)C(C)C)C(C)C)[C@@H](C)CC)[C@@H](C)CC)[C@@H](C)O)[C@@H](C)O)[C@@H](C)CC)C(=O)N[C@@H](C)C(=O)N[C@@H](CCC(=O)O)C(=O)N[C@H](C(N)=O)C(C)C [compound 217] (H-[NMeI]VLSLDVPIGLLQILLTQARARAAREQAK([AEEA-AEEA-γGlu-γGlu-C20 diacid])TN[Aib]EI[Nle]AEV-NH2) |  |  | 1000 nM | 0.0398 nM |
| CCCC[C@H](NC(=O)[C@@H](NC(=O)[C@H](CCC(=O)O)NC(=O)[C@H](C)NC(=O)[C@H](CC(N)=O)NC(=O)[C@@H](NC(=O)[C@H](CCCCNC(=O)COCCOCCNC(=O)COCCOCCNC(=O)CC[C@H](NC(=O)CC[C@H](NC(=O)CCCCCCCCCCCCCCCCCCC(=O)O)C(=O)O)C(=O)O)NC(=O)[C@H](C)NC(=O)[C@H](CCC(N)=O)NC(=O)[C@H](CCC(=O)O)NC(=O)[C@H](CCCNC(=N)N)NC(=O)[C@H](C)NC(=O)[C@H](CCC(N)=O)NC(=O)[C@H](CCCNC(=N)N)NC(=O)[C@H](C)NC(=O)[C@H](CCCNC(=N)N)NC(=O)[C@H](C)NC(=O)[C@H](CCC(N)=O)NC(=O)[C@H](CCC(=O)O)NC(=O)[C@H](CC(C)C)NC(=O)[C@H](CC(C)C)NC(=O)[C@@H](NC(=O)[C@H](CCC(N)=O)NC(=O)[C@H](CC(C)C)NC(=O)[C@H](CC(C)C)NC(=O)CNC(=O)[C@@H](NC(=O)[C@@H]1CCCN1C(=O)[C@@H](NC(=O)[C@H](CC(=O)O)NC(=O)[C@H](CC(C)C)NC(=O)[C@H](CO)NC(=O)[C@H](CC(C)C)NC(=O)[C@@H](NC(=O)[C@@H](N)[C@@H](C)CC)C(C)C)C(C)C)[C@@H](C)CC)[C@@H](C)CC)[C@@H](C)O)[C@@H](C)CC)C(=O)N[C@@H](C)C(=O)N[C@@H](CCC(=O)O)C(=O)N[C@H](C(N)=O)C(C)C [compound 53] (H-IVLSLDVPIGLLQILLEQARARQAREQAK([AEEA-AEEA-γGlu-γGlu-C20 diacid])TNAEI[Nle]AEV-NH2) | 251 nM | 0.316 nM |  |  |

The remaining lines, values ahead:

| EC50 [1, 3] | EC50 [2, 4] | EC50 ([1]; Table 4, library peptides having X^38 = Nle, read-out: hCRHR1 pEC50 (converted)) | EC50 ([2]; Table 4, library peptides having X^38 = Nle, read-out: hCRHR2 pEC50 (converted)) | Compound |
| --- | --- | --- | --- | --- |
| 25100 nM | 1 nM |  |  | CC[C@H](C)[C@H](N)C(=O)N[C@H](C(=O)N[C@@H](CC(C)C)C(=O)N[C@@H](CO)C(=O)N[C@@H](CC(C)C)C(=O)N[C@@H](CC(=O)O)C(=O)N[C@H](C(=O)N1C[C@@H](F)C[C@H]1C(=O)N[C@H](C(=O)NCC(=O)N[C@@H](CC(C)C)C(=O)N[C@@H](CC(C)C)C(=O)N[C@@H](CCC(N)=O)C(=O)N[C@H](C(=O)N[C@@H](CC(C)C)C(=O)N[C@@H](CC(C)C)C(=O)N[C@H](C(=O)N[C@@H](CCC(N)=O)C(=O)N[C@@H](C)C(=O)N[C@@H](CCCNC(=N)N)C(=O)N[C@@H](C)C(=O)N[C@@H](CCCNC(=N)N)C(=O)N[C@@H](C)C(=O)N[C@@H](C)C(=O)N[C@@H](CCCNC(=N)N)C(=O)N[C@@H](CCC(=O)O)C(=O)N[C@@H](CCC(N)=O)C(=O)N[C@@H](C)C(=O)N[C@@H](CCCCNC(=O)COCCOCCNC(=O)COCCOCCNC(=O)CC[C@H](NC(=O)CC[C@H](NC(=O)CCCCCCCCCCCCCCCCCCC(=O)O)C(=O)O)C(=O)O)C(=O)N[C@H](C(=O)N[C@@H](CC(N)=O)C(=O)N[C@@H](C)C(=O)N[C@@H](CCC(=O)O)C(=O)N[C@H](C(=O)N[C@@H](CC(C)C)C(=O)N[C@@H](C)C(=O)N[C@@H](CCC(=O)O)C(=O)N[C@H](C(N)=O)C(C)C)[C@@H](C)CC)[C@@H](C)O)[C@@H](C)O)[C@@H](C)CC)[C@@H](C)CC)C(C)C)C(C)C [compound 80] (H-IVLSLDV[Pro(cis-4-F)]IGLLQILLTQARARAAREQAK([AEEA-AEEA-γGlu-γGlu-C20 diacid])TNAEILAEV-NH2) |
| 1.58 nM | 0.398 nM |  |  | CCCC[C@H](NC(=O)[C@@H](NC(=O)[C@H](CCC(=O)O)NC(=O)[C@H](C)NC(=O)[C@H](CC(N)=O)NC(=O)[C@@H](NC(=O)[C@H](CCCCNC(=O)COCCOCCNC(=O)COCCOCCNC(=O)CC[C@H](NC(=O)CC[C@H](NC(=O)CCCCCCCCCCCCCCCCCCC(=O)O)C(=O)O)C(=O)O)NC(=O)[C@H](C)NC(=O)[C@H](CCC(N)=O)NC(=O)[C@H](CCC(=O)O)NC(=O)[C@H](CCCNC(=N)N)NC(=O)[C@H](C)NC(=O)[C@@H](NC(=O)[C@H](CCCNC(=N)N)NC(=O)[C@H](C)NC(=O)[C@H](CCCNC(=N)N)NC(=O)[C@H](C)NC(=O)[C@H](CCC(N)=O)NC(=O)[C@H](CCC(=O)O)NC(=O)[C@H](CC(C)C)NC(=O)[C@H](CC(C)C)NC(=O)[C@@H](NC(=O)[C@H](CCC(N)=O)NC(=O)[C@H](CC(C)C)NC(=O)[C@H](CC(C)C)NC(=O)CNC(=O)[C@@H](NC(=O)[C@@H]1CCCN1C(=O)[C@@H](NC(=O)[C@H](CC(=O)O)NC(=O)[C@H](CC(C)C)NC(=O)[C@H](CO)NC(=O)[C@H](CC(C)C)NC(=O)[C@@H](NC(=O)[C@@H](N)[C@@H](C)CC)C(C)C)C(C)C)[C@@H](C)CC)[C@@H](C)CC)C(C)C)[C@@H](C)O)[C@@H](C)CC)C(=O)N[C@@H](C)C(=O)N[C@@H](CCC(=O)O)C(=O)N[C@H](C(N)=O)C(C)C [compound 91] (H-IVLSLDVPIGLLQILLEQARARVAREQAK([AEEA-AEEA-γGlu-γGlu-C20 diacid])TNAEI[Nle]AEV-NH2) |
